# Results reported in US20260337208A1, “HETEROCYCLIC DERIVATIVES AS JANUS KINASE INHIBITORS” (CHIESI FARMACEUTICI S.P.A., priority 2022, published 2026).
# pIC50: −log10 of the molar value.
# Assays:
# [1] = tested on: pSTAT6 in BEAS-2B human cell line; experiment: Inhibition of IL-13 induced pSTAT6 in BEAS; format: cell-based; details: for pIC50: Homo sapiens, BEAS-2B, 0.5 h, IL-13 trigger, 30 min, parent compound; for Fold difference parent vs predicted acid metabolite: ratio=IC50 predicted acid metabolite/IC50 ester
# Experimental: BEAS-2B human cell line was seeded (100.000 cells/well) and incubated for 48 h at 37° C., 5% CO2, 95% humidity. Compounds were added and incubated 30 min followed by IL-13 as trigger. After 30 min incubation, cells were lysed and pSTAT6 determined by Fastscan phospho-stat6 (Tyr641) sandwich ELISA kit (cell signaling). Inhibitors were tested at 11 consecutive 5-fold dilutions starting from 10 μM (10 μM-[…]) in duplicate. Calculation of IC50 data, curves and QC analysis were made using Excel tools and GraphPadPrism software. QC criteria parameters: Z′≥0.35, Hill Slope range 0.5 to 5, S:B>2.
# JAK2 = JAK2 (Homo sapiens, UniProt O60674); experiment: Biochemical potency on JAK2, TR-FRET (LANCE Ultra kinase assay); details: ATP corresponding to Km; cell-free; read-out: JAK2 inhibitory activity (pIC50) (converted)
# Sequence of JAK2 (O60674 whole entry, canonical isoform): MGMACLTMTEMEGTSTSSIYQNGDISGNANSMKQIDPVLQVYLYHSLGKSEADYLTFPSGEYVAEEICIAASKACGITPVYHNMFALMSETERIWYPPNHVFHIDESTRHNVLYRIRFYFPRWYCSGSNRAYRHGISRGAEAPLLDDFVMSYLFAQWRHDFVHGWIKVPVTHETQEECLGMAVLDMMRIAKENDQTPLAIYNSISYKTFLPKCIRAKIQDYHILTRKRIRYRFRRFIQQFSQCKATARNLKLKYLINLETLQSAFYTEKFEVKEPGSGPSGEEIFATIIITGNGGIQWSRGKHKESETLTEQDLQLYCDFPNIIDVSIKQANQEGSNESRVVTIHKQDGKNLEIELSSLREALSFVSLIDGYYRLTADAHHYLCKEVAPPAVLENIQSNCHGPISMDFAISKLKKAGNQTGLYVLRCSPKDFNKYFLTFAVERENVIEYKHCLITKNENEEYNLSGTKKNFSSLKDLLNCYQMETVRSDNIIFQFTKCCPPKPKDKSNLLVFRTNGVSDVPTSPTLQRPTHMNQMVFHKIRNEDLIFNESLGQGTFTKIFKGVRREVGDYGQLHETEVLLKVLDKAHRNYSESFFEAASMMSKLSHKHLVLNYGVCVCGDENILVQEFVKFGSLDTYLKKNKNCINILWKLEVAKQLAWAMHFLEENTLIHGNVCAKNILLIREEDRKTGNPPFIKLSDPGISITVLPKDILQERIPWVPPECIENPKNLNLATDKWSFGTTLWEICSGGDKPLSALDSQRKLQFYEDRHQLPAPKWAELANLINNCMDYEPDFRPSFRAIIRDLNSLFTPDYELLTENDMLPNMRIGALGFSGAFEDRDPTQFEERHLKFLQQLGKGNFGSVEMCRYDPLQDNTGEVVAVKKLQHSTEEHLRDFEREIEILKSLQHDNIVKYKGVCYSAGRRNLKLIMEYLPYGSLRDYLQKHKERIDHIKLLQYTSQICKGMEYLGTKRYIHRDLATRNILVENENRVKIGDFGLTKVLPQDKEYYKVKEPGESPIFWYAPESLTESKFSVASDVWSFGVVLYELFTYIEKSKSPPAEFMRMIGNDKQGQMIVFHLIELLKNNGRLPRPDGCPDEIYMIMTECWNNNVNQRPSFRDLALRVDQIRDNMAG
# Experimental: (§1) The objective of this study was to assess the capability of compounds to inhibit all 4 JAK isoforms activity in a cell-free environment. Assay for JAK 1, JAK 2, JAK 3 and TYK2 were performed by Time-resolved fluorescence resonance energy transfer (TR-FRET) technology. It consists in the interaction of two labelled binding partners detected by the energy transfer from an excited donor to an acceptor dye and measurement of light emission by the acceptor dye. LANCE Ultra kinase assay was used. In presence of JAK 1, JAK 2, JAK 3 and TYK2 kinases and ATP (corresponding to Km), the ULight peptide substrate (LANCE Ulight-JAK-1 (Tyr1023) Peptide, Perkin Elmer, TRF0121) is phosphorylated. It is then captured by Eu-anti-phospho-substrate antibody (LANCE Eu-W1024 Anti-phosphotyrosine (PT66), Perkin Elmer, AD0069), which bring the Eu-chelate donor and ULight acceptor dyes into close proximity. Upon excitation at 320 nm, the Eu-chelate transfers its energy to the ULight dye, resulting in a fluorescent light emission at 665 nm.
# (§2) Serial dilutions of compounds in pure DMSO are prepared from 10 mM DMSO stock solutions. Compounds were tested in 384-well plate for 11 consecutive 5-fold dilutions starting from 20 μM highest concentration (20 μM-[…]). 200 nL of compound were transferred from mother plate to test plate by using Mosquito (TTP labtech). Assay was performed in 384-well Perkin Elmer test plate in 20 μL assay volume (kinase reaction) and 40 μL total volume (stopping reagent and antibody detection reagents). In 10 μL of substrate solution (peptide+ATP) 30/50/20/10 nM of peptide and 20/0.7/0.2/12 μM of ATP were added for JAK 1, JAK 2, JAK 3 and TYK2 respectively. 10 μL of enzyme solution was added to kinase reaction at these concentrations: 0.15/0.083/0.025/0.144 ng/μL of JAK 1, JAK 2, JAK 3 and TYK2 respectively. After shaking and 1.5 h of incubation at r.t., 20 μL of Stop (10 μL EDTA) and Detection mixture (10 μL Europium-anti-phospho antibody, final: 0.5 nM) were added. Reading was performed after 1 h of incubation on a En Vision 2104 reader (Perkin Elmer).
# (§3) Calculation of IC50 data, curves and QC analysis was performed by using Excel tool and GraphPadPrism software, v9. Briefly, individual concentration-effect curves are generated by plotting the logarithm of the tested concentration of tested compounds (X) vs. corresponding percent inhibition values (Y) using least squares (ordinary) fit. Best fit IC50 values are calculated using Log (inhibitor) vs. normalized response—Variable slope equation, where Y=100/(1+10^((LogIC50−X)*HillSlope)). QC criteria parameters (Z′, S:B, R2, HillSlope) were checked for every IC50 curve. Calculation of IC50 data, curves and QC analysis were made using Excel tools and GraphPadPrism software. QC criteria parameters: Z′≥0.5, Hill Slope range 0.5 to 5, S:B>2.
# TYK2 = TYK2 (Homo sapiens, UniProt P29597); experiment: Biochemical potency on Tyk2, TR-FRET (LANCE Ultra kinase assay); details: ATP corresponding to Km; cell-free; read-out: TYK2 inhibitory activity (pIC50) (converted)
# Sequence of TYK2 (P29597 whole entry): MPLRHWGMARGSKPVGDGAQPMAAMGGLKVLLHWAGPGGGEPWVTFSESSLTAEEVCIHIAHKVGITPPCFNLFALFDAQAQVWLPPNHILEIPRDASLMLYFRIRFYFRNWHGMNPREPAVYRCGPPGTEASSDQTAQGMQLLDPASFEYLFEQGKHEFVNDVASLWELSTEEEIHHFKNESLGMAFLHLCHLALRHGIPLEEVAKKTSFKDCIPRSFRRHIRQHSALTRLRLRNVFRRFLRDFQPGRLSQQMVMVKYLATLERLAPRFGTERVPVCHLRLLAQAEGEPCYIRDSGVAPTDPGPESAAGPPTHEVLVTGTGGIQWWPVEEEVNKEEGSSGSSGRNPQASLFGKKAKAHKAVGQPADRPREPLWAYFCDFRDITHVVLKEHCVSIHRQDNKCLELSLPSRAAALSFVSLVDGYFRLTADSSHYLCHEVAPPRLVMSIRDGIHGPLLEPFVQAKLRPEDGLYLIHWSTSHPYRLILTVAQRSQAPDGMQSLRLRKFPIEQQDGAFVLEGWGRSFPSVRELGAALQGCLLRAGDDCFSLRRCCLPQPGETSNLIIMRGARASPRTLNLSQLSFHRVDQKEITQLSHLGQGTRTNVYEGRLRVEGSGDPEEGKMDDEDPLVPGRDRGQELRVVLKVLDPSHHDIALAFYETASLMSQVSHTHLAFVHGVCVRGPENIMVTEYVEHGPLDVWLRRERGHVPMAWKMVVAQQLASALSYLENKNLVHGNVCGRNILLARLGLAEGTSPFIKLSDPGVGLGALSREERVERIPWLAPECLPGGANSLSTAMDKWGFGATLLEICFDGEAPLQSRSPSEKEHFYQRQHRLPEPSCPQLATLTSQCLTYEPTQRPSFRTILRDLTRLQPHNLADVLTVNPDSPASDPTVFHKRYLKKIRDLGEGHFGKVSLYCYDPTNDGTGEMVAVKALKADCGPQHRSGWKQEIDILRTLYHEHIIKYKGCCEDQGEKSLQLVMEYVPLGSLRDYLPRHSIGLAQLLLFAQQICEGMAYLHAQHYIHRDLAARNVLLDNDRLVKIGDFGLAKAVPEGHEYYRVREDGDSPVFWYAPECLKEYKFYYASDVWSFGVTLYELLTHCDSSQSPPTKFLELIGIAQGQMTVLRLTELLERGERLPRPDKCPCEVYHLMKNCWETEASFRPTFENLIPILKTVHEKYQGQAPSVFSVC
# Experimental: as §1, §2, §3
# JAK1 = JAK1 (Homo sapiens, UniProt P23458); experiment: Biochemical potency on JAK1, TR-FRET (LANCE Ultra kinase assay); details: ATP corresponding to Km; cell-free; read-out: JAK1 inhibitory activity (pIC50) (converted)
# Sequence of JAK1 (P23458 whole entry): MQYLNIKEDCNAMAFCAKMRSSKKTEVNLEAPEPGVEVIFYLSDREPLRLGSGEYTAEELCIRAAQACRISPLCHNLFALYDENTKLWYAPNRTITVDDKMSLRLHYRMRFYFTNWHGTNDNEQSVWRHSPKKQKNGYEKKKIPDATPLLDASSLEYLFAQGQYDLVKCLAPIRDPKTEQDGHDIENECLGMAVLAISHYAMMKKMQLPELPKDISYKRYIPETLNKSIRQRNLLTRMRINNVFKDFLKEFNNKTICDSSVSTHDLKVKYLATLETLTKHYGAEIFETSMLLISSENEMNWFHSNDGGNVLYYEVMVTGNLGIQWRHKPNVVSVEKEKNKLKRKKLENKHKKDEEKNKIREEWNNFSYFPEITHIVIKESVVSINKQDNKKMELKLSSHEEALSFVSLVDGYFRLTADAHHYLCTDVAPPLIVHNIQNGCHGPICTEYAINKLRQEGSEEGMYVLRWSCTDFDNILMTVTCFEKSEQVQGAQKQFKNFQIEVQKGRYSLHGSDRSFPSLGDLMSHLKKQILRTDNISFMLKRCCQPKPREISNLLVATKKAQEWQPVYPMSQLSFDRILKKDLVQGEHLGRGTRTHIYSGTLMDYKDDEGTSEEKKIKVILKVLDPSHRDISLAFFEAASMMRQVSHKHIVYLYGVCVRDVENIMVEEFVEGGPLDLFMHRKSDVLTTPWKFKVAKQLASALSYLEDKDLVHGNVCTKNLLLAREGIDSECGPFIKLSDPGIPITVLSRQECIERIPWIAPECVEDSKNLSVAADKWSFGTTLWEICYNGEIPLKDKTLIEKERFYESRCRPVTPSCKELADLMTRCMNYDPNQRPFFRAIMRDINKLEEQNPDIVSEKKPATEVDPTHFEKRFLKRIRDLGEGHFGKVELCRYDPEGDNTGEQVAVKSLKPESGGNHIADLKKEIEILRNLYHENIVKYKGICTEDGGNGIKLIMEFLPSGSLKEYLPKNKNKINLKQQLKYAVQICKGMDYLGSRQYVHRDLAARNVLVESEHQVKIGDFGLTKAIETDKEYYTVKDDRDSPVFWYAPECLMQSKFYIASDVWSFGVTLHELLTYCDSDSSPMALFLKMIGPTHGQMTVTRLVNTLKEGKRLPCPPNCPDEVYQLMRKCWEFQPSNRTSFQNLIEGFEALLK
# Experimental: as §1, §2, §3
# JAK3 = biological target: T1, JAK3 (Homo sapiens, UniProt P52333); experiment: Biochemical potency on JAK3, TR-FRET (LANCE Ultra kinase assay); details: ATP corresponding to Km; cell-free; read-out: JAK3 inhibitory activity (pIC50) (converted)
# T1 sequence (P52333 1-1124): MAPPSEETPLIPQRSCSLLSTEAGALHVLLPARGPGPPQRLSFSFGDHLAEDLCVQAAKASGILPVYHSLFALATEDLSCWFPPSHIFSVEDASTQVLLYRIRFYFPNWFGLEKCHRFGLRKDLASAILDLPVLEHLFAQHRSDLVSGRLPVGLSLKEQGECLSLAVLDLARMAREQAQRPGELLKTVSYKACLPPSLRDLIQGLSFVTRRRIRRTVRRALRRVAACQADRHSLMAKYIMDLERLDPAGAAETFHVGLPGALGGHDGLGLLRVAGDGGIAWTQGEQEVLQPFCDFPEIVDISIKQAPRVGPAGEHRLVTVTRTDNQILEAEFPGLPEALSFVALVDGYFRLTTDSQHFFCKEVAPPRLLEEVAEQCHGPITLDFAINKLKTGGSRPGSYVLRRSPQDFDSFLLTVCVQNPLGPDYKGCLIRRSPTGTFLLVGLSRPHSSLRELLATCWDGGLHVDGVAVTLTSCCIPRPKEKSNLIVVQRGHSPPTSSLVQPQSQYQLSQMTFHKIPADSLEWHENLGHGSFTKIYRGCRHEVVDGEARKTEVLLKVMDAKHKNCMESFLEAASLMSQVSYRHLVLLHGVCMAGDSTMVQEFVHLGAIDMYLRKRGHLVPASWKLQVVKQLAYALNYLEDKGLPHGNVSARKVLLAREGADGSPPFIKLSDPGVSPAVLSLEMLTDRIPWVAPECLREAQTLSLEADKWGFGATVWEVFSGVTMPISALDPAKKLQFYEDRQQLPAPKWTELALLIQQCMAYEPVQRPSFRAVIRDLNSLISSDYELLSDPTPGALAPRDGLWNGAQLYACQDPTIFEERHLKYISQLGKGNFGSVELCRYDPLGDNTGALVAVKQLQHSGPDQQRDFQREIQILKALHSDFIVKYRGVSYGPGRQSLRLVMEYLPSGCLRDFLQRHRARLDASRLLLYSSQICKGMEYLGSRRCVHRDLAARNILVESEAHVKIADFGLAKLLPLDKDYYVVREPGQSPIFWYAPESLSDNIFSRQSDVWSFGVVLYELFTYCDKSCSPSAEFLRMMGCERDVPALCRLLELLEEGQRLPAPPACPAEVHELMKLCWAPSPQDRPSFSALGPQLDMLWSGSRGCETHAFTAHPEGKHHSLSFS
# Experimental: as §1, §2, §3
Structure (SMILES),IC50 (JAK2),IC50 (TYK2),IC50 (JAK1),IC50 (JAK3),pIC50 [1],Fold difference parent vs predicted acid metabolite [1]
"COc1cc2c(cc1-n1nc(C(=O)NCCCN3CCC(C(=O)OC4CCN(C)CC4)CC3)c3cnc(-c4cnn5cccnc45)cc31)OCCN2 [Example 26, 1-methylpiperidin-4-yl 1-(3-(1-(6-methoxy-3,4-dihydro-2H-benzo[b][1,4]oxazin-7-yl)-6-(pyrazolo[1,5-a]pyrimidin-3-yl)-1H-pyrazolo[4,3-c]pyridine-3-carboxamido)propyl)piperidine-4-carboxylate]",≤ 5.01 nM,5.01 to 50.1 nM,5.01 to 50.1 nM,≤ 5.01 nM,7.30 to 8.30,–
"COc1cc2c(cc1-n1nc(C(=O)NCCN3CCC(C(=O)OCC(C)(C)CO)CC3)c3cnc(-c4cnn5cccnc45)cc31)OCCN2 [Example 15, 3-hydroxy-2,2-dimethylpropyl 1-(2-(1-(6-methoxy-3,4-dihydro-2H-benzo[b][1,4]oxazin-7-yl)-6-(pyrazolo[1,5-a]pyrimidin-3-yl)-1H-pyrazolo[4,3-c]pyridine-3-carboxamido)ethyl)piperidine-4-carboxylate]",≤ 5.01 nM,5.01 to 50.1 nM,≤ 5.01 nM,≤ 5.01 nM,≥ 8.30,kkkk (ratio≥200)
CCOC(=O)[C@@H]1C[C@@H]2CN(CCNC(=O)c3nn(-c4cc5c(cc4OC)NCCO5)c4cc(-c5cnn6cccnc56)ncc34)C[C@@H]2C1 [Example 32],≤ 5.01 nM,5.01 to 50.1 nM,≤ 5.01 nM,≤ 5.01 nM,7.30 to 8.30,–

# Continued, in another order:
IC50 (JAK2),IC50 (TYK2),IC50 (JAK1),IC50 (JAK3),Structure (SMILES),pIC50 [1],Fold difference parent vs predicted acid metabolite [1]
≤ 5.01 nM,5.01 to 50.1 nM,≤ 5.01 nM,≤ 5.01 nM,"CCOC(=O)[C@H]1[C@@H]2CN(CCNC(=O)c3nn(-c4cc5c(cc4OC)NCCO5)c4cc(-c5cnn6cccnc56)ncc34)C[C@@H]21 [Example 33, ethyl (1R,5S,6r)-3-(2-(1-(6-methoxy-3,4-dihydro-2H-benzo[b][1,4]oxazin-7-yl)-6-(pyrazolo[1,5-a]pyrimidin-3-yl)-1H-pyrazolo[4,3-c]pyridine-3-carboxamido)ethyl)-3-azabicyclo[3.1.0]hexane-6-carboxylate]",7.30 to 8.30,–
≤ 5.01 nM,5.01 to 50.1 nM,≤ 5.01 nM,≤ 5.01 nM,"COc1cc2c(cc1-n1nc(C(=O)NCCN3CCC(CC(=O)OCC(C)(C)O)CC3)c3cnc(-c4cnn5cccnc45)cc31)OCCN2 [Example 48, 2-hydroxy-2-methylpropyl 2-(1-(2-(1-(6-methoxy-3,4-dihydro-2H-benzo[b][1,4]oxazin-7-yl)-6-(pyrazolo[1,5-a]pyrimidin-3-yl)-1H-pyrazolo[4,3-c]pyridine-3-carboxamido)ethyl)piperidin-4-yl)acetate]",7.30 to 8.30,kkkk (ratio≥200)
≤ 5.01 nM,5.01 to 50.1 nM,5.01 to 50.1 nM,≤ 5.01 nM,"COC(=O)Cc1cccc(CN(C)CCNC(=O)c2nn(-c3cc4c(cc3OC)NCCO4)c3cc(-c4cnn5cccnc45)ncc23)c1 [Example 37, methyl 2-(3-(((2-(1-(6-methoxy-3,4-dihydro-2H-benzo[b][1,4]oxazin-7-yl)-6-(pyrazolo[1,5-a]pyrimidin-3-yl)-1H-pyrazolo[4,3-c]pyridine-3-carboxamido)ethyl)(methyl)amino)methyl)phenyl)acetate]",7.30 to 8.30,–
≤ 5.01 nM,5.01 to 50.1 nM,≤ 5.01 nM,≤ 5.01 nM,"CCOC(=O)C1(C)CCN(CCNC(=O)c2nn(-c3cc4c(cc3OC)NCCO4)c3cc(-c4cnn5cccnc45)ncc23)CC1 [Example 34, ethyl 1-(2-(1-(6-methoxy-3,4-dihydro-2H-benzo[b][1,4]oxazin-7-yl)-6-(pyrazolo[1,5-a]pyrimidin-3-yl)-1H-pyrazolo[4,3-c]pyridine-3-carboxamido)ethyl)-4-methylpiperidine-4-carboxylate]",7.30 to 8.30,–
